In patent US9289414B2 (priority 2004, dated 2016):

Experiments:
[1] = test system: SVR cells; assay: SVR cell proliferation / viability bioassay (angiogenic bioassay); format: cell-based, murine; conditions: FIG. 1
Protocol: Liquid extract of coal tar was concentrated under vacuum to get crude extract (20.0 mg). This extract was applied on a Sephadex LH 20 (3.0×100 cm) column and eluted with MeOH. The elution was monitored by TLC and similar fractions are combined to get 11 fractions. This fraction was assayed for inhibition of SVR cell viability (Arbiser et al. (1999) J. Am. Acad. Dermatol. 40, 925-929; and Bai et al. (2003) J. Biol. Chem. 278, 35501-35507). […] These changes are similar to what is observed when SVR cells are treated with an EGFR tyrosine kinase inhibitor.
Coal tar fractions were tested for their ability to inhibit the proliferation of SVR cells, an established angiogenic bioassay.

[2] = test system: Drosophila embryos; assay: Normal development of Drosophila embryos; set-up: species or system Drosophila melanogaster; conditions: in vivo
Protocol: (§1) In order to test whether carbazole and its derivatives affect EGFR, the compounds were tested using a novel EGFR assay that is amenable to high throughput screening.

[3] = test system: EGFR; assay: Drosophila EGFR eye phenotype assay; format: in vivo, Drosophila melanogaster; conditions: treatment of mutant Drosophila
From the text: The epidermal growth factor receptor pathway controls cell fate throughout phylogeny. Binding of secreted ligands to EGFR on the cell surface initiates a cascade of events that ultimately invokes transcriptional changes in the nucleus. Ligand/receptor interactions are of critical importance during Drosophila eye development, as recruitment and differentiation of almost all photoreceptors are dependent on high levels of activation of the EGFR pathway. Binding of activating ligand to EGFR results in a cascade of membranous and cytoplasmic phosphorylation events.
as §1

[4] = test system: interleukin-15 (IL-15); assay: IL-15 production by PSK-activated mononuclear cells; format: cell-based, human; conditions: PSK-stimulated mononuclear cells, FIG. 2A
From the text: Cytokine production by mononuclear cells plays an important role in psoriasis. One of the cardinal cytokines involved in the pathogenesis of psoriasis is interleukin-15 (IL-15). IL-15 plays several roles that may be important in psoriasis. […] In addition, IL-15 is angiogenic in vivo.

[5] = test system: Rac; assay: Rac activation in HUVEC after VEGF stimulation (PAK-1 PBD pull-down); format: cell-based, human; conditions: carbazole 5 mg/ml pretreatment 1 hr, VEGF 20 ng/ml 5 min, FIG. 5
Protocol: Cells were lysed with ice-cold lysis buffer, pH 7.5, containing 25 mmol/liter HEPES, 150 mmol/liter NaCl, 1% IGEPAL CA-630, 0.25% sodium deoxycholate, 10 mmol/liter MgCl2, 10% glycerol, 25 mmol/liter NaF, 1 mmol/liter EDTA, 1 mmol/liter sodium orthovanadate, 10 μg/ml leupeptin, 10 μg/ml aprotinin, and 1 mmol/liter phenylmethylsulfonyl fluoride. Activated (GTP-bound) Rac was affinity-precipitated with p21-activated kinase-1 protein binding domain peptide, which binds only to Rac-GTP and not Rac-GDP.
p21-Activated kinase-1 protein binding domain-agarose (7.5 μg/mg cell lysate, Upstate Biotechnology) was added, and the reaction mixture was gently rocked at 4° C. for 60 min. The agarose beads were collected by pulsing for 5 s in a microcentrifuge at 14,000×g, and the beads were washed three times with 0.5 ml of lysis buffer. The agarose beads were resuspended in 40 μl of 1×SDS sample buffer and boiled for 5 min. The supernatant was separated by SDS-PAGE on a 12% gel, and the proteins were transferred to nitrocellulose membrane. After blocking for 1 h in PBS containing 5% nonfat dry milk and 0.1% Tween 20, the membrane was incubated with anti-Rac antibody (1:1000 dilution, Upstate Biotechnology) overnight. After incubation with the secondary antibody, Rac was detected by enhanced chemiluminescence.

[6] = test system: iNOS; assay: iNOS expression, in vitro translation and Western blot of HEK293 and RAW264.7 cells; format: cell-based; conditions: FIG. 3A-C
Protocol: Reactions were performed at 30° C. for 90 min. Translation products were separated by SDS/PAGE, and bands, representing ^35S-labeled iNOS, were detected by Phosphoimager (Molecular Dynamics). The data shown in FIG. 3A represent two independent experiments done in duplicates.
Transfection and stable cell line production of HEK293 cells was performed by cationic lipid-mediated transient transfection using “LipofectAMINE 2000” (Invitrogen) following manufacturer's instructions. Stable cell line expressing iNOS, were produced by using transfection of iNOS cDNA followed by positive colony selection using G418 (Invitrogen) at concentration of 600 μg/ml. iNOS Induction of mouse macrophages RAW264.7, involved incubating the cells with a mixture of mouse interferon (mIFN)-γ (10 u/ml) and LPS (100 ng/ml).
Cell lysis was performed on collected cells. After gently rinsing the cells twice with phosphate-buffered saline, the cell layer was lysed on ice for 30 min in 40 mM Bis-Tris propane buffer, pH 7.7, 150 mM NaCl, 10% glycerol, 1% Triton-X100 in the presence of protease inhibitors (phenylmethylsulfonyl fluoride (1 mM), pepstatin-A (10 μg/ml), leupeptin (10 μg/ml), aprotinin (10 μg/ml), phenanthroline (10 μg/ml), benzamidine HCl (16 μg/ml)) (PharMingen). […] Total protein concentrations were determined by using a bicinchoninic acid reagent, following the manufacturer's instructions (Pierce). […]

[7] = test system: signaling lymphocyte activator molecule associated protein (SAP); assay: PSK-induced SAP expression in lymphocytes; format: cell-based, human; conditions: FIG. 2B

`Oc1ccc2c(c1)[nH]c1ccccc12` [2-hydroxy carbazole, 2-hydroxycarbazole] was tested, and the antiproliferative activity [1] was “more potent antiproliferative activity”.

For `Oc1ccc2[nH]c3ccccc3c2c1` [3-hydroxy carbazole, 3-hydroxycarbazole], the antiproliferative activity [1] was “more potent antiproliferative activity”.

With `Oc1cccc2[nH]c3ccccc3c12` [4-hydroxy carbazole, 4-hydroxycarbazole] the “effect on normal development of Drosophila embryos” value [2] was “no effect”, the “effect on eye phenotype of mutant Drosophila with active EGFR” value [3] was “correction of the phenotypic defect” and the antiproliferative activity [1] was “more potent antiproliferative activity”.

`c1ccc2c(c1)[nH]c1ccccc12` [carbazole, 9H-Carbazole] was tested, and the “production of IL-15” value [4] was “inhibited production of IL-15”, the “effect on normal development of Drosophila embryos” value [2] was “no effect” and the “rac activation in response to VEGF” value [5] was “blocks rac activation”. For the same compound, the “levels of nitric oxide synthase enzyme” value [6] was “without affecting levels of enzyme”, the “effect on eye phenotype of mutant Drosophila with active EGFR” value [3] was “correction of the phenotypic defect” and the SAP expression [7] was “inhibited”. The antiproliferative activity [1] was “mild antiproliferative activity”.
